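Results reflect a 48-hour exposure of cells in 96-well plates to compound at five concentrations. Here, GI50 denotes the concentration required for 50% inhibition of growth.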 Active and inactive are the calls of the source. Rule as the data show it: active = GI50 up to about 1.1 µM and inactive = higher.
Tests used:
Test in all cases: NCI anticancer screen, dose series, 48 h
OVCAR-8 = system: OVCAR-8
SF-295 = system: SF-295
SN12C = system: SN12C
T47D = system: T47D
UACC-257 = system: UACC-257
ACHN = system: ACHN
SF-268 = system: SF-268
SNB-19 = system: SNB-19
NCI-H522 = system: NCI-H522
A549 = system: A549
UACC-62 = system: UACC-62
BT-549 = system: BT-549
UO-31 = system: UO-31
LOX IMVI = system: LOX IMVI
MDA-MB-435 = system: MDA-MB-435
MOLT-4 = system: MOLT-4
U-251 = system: U-251
HT-29 = system: HT-29
SK-MEL-28 = system: SK-MEL-28
CCRF-CEM = system: CCRF-CEM
A498 = system: A498
DU-145 = system: DU-145
M14 = system: M14
HCC 2998 = system: HCC 2998
HOP-62 = system: HOP-62
PC-3 = system: PC-3
786-0 = system: 786-0
HCT-116 = system: HCT-116
MDA-N = system: MDA-N
RPMI-8226 = system: RPMI-8226
NCI-H226 = system: NCI-H226
K562 = system: K562
SR = system: SR
SNB-75 = system: SNB-75
SW-620 = system: SW-620
HOP-92 = system: HOP-92
OVCAR-3 = system: OVCAR-3
MDA-MB-231 = system: MDA-MB-231
OVCAR-5 = system: OVCAR-5
EKVX = system: EKVX
OVCAR-4 = system: OVCAR-4
Hs-578T = system: Hs-578T
SK-MEL-2 = system: SK-MEL-2
SK-MEL-5 = system: SK-MEL-5
RXF 393 = system: RXF 393
KM12 = system: KM12
IGROV-1 = system: IGROV-1
HCT-15 = system: HCT-15
TK-10 = system: TK-10
Malme-3M = system: Malme-3M
NCI/ADR-RES = system: NCI/ADR-RES
CAKI-1 = system: CAKI-1
NCI-H23 = system: NCI-H23
NCI-H460 = system: NCI-H460
HL-60 = system: HL-60
SK-OV-3 = system: SK-OV-3
SF-539 = system: SF-539
COLO 205 = system: COLO 205
MCF7 = system: MCF7

O=C(O)CCCN1CCCCC1
GI50 (OVCAR-8): > 100 µM (inactive) | GI50 (SF-295): > 100 µM (inactive) | GI50 (SN12C): > 100 µM (inactive) | GI50 (T47D): > 100 µM (inactive) | GI50 (UACC-257): > 100 µM (inactive) | GI50 (ACHN): > 100 µM (inactive) | GI50 (SF-268): > 100 µM (inactive) | GI50 (SNB-19): > 100 µM (inactive) | GI50 (NCI-H522): > 100 µM (inactive) | GI50 (A549): > 100 µM (inactive) | GI50 (UACC-62): > 100 µM (inactive) | GI50 (BT-549): > 100 µM (inactive) | GI50 (UO-31): > 100 µM (inactive) | GI50 (LOX IMVI): > 100 µM (inactive) | GI50 (MDA-MB-435): > 100 µM (inactive) | GI50 (MOLT-4): > 100 µM (inactive) | GI50 (U-251): > 100 µM (inactive) | GI50 (HT-29): > 100 µM (inactive) | GI50 (SK-MEL-28): > 100 µM (inactive) | GI50 (CCRF-CEM): > 100 µM (inactive) | GI50 (A498): > 100 µM (inactive) | GI50 (DU-145): > 100 µM (inactive) | GI50 (M14): > 100 µM (inactive) | GI50 (HCC 2998): > 100 µM (inactive) | GI50 (HOP-62): > 100 µM (inactive) | GI50 (PC-3): > 100 µM (inactive) | GI50 (786-0): > 100 µM (inactive) | GI50 (HCT-116): > 100 µM (inactive) | GI50 (MDA-N): > 100 µM (inactive) | GI50 (RPMI-8226): > 100 µM (inactive) | GI50 (NCI-H226): > 100 µM (inactive) | GI50 (K562): > 100 µM (inactive) | GI50 (SR): > 100 µM (inactive) | GI50 (SNB-75): > 100 µM (inactive) | GI50 (SW-620): > 100 µM (inactive) | GI50 (HOP-92): > 100 µM (inactive) | GI50 (OVCAR-3): > 100 µM (inactive) | GI50 (MDA-MB-231): > 100 µM (inactive) | GI50 (OVCAR-5): > 100 µM (inactive) | GI50 (EKVX): > 100 µM (inactive) | GI50 (OVCAR-4): > 100 µM (inactive) | GI50 (Hs-578T): > 100 µM (inactive) | GI50 (SK-MEL-2): > 100 µM (inactive) | GI50 (SK-MEL-5): > 100 µM (inactive) | GI50 (RXF 393): > 100 µM (inactive) | GI50 (KM12): > 100 µM (inactive) | GI50 (IGROV-1): > 100 µM (inactive) | GI50 (HCT-15): > 100 µM | GI50 (TK-10): > 100 µM (inactive) | GI50 (Malme-3M): > 100 µM (inactive) | GI50 (NCI/ADR-RES): > 100 µM (inactive) | GI50 (CAKI-1): > 100 µM (inactive) | GI50 (NCI-H23): > 100 µM (inactive) | GI50 (NCI-H460): > 100 µM (inactive)

OCCN(/N=C\c1ccc2ccccc2c1)C1=NCCN1
GI50 (OVCAR-8): 48.4 µM (inactive) | GI50 (SF-295): 31 µM (inactive) | GI50 (SN12C): 25.3 µM (inactive) | GI50 (T47D): 29.6 µM (inactive) | GI50 (ACHN): 29.1 µM (inactive) | GI50 (SF-268): 35.1 µM (inactive) | GI50 (SNB-19): 32.4 µM (inactive) | GI50 (A549): 59.2 µM (inactive) | GI50 (HL-60): 19 µM (inactive) | GI50 (UACC-62): 21.3 µM (inactive) | GI50 (BT-549): 42.8 µM (inactive) | GI50 (UO-31): 54.7 µM (inactive) | GI50 (LOX IMVI): 16.3 µM (inactive) | GI50 (MDA-MB-435): 16.9 µM (inactive) | GI50 (MOLT-4): 18.2 µM (inactive) | GI50 (SK-OV-3): 47.9 µM (inactive) | GI50 (U-251): 24.9 µM (inactive) | GI50 (HT-29): 27.5 µM (inactive) | GI50 (SK-MEL-28): 19.3 µM (inactive) | GI50 (SF-539): 21 µM (inactive) | GI50 (CCRF-CEM): 27.6 µM (inactive) | GI50 (DU-145): 31.6 µM (inactive) | GI50 (M14): 18.6 µM (inactive) | GI50 (HCC 2998): 16.3 µM (inactive) | GI50 (HOP-62): 42.6 µM (inactive) | GI50 (PC-3): 24.9 µM (inactive) | GI50 (786-0): 25.2 µM (inactive) | GI50 (HCT-116): 26.7 µM (inactive) | GI50 (MDA-N): 17.2 µM (inactive) | GI50 (RPMI-8226): 28.8 µM (inactive) | GI50 (NCI-H226): 12.9 µM (inactive) | GI50 (K562): 14.4 µM (inactive) | GI50 (COLO 205): 17.9 µM (inactive) | GI50 (SR): 25.6 µM (inactive) | GI50 (SNB-75): 20.7 µM (inactive) | GI50 (SW-620): 21.1 µM (inactive) | GI50 (HOP-92): 16 µM (inactive) | GI50 (OVCAR-3): 23.2 µM (inactive) | GI50 (MDA-MB-231): 12.8 µM (inactive) | GI50 (OVCAR-5): 24.2 µM (inactive) | GI50 (EKVX): 40.5 µM (inactive) | GI50 (OVCAR-4): 30.8 µM (inactive) | GI50 (Hs-578T): 36.1 µM (inactive) | GI50 (SK-MEL-2): 20.3 µM (inactive) | GI50 (SK-MEL-5): 18.3 µM (inactive) | GI50 (RXF 393): 11.4 µM (inactive) | GI50 (KM12): 38.2 µM (inactive) | GI50 (IGROV-1): 35.1 µM (inactive) | GI50 (HCT-15): 30.5 µM | GI50 (TK-10): 37.7 µM (inactive) | GI50 (Malme-3M): 15.6 µM (inactive) | GI50 (MCF7): 36.1 µM (inactive) | GI50 (NCI-H23): 27.7 µM (inactive) | GI50 (NCI-H460): 29.4 µM (inactive)

Source: ChEMBL document CHEMBL1201862, “PubChem BioAssay data set” (2004)
